From US12622898B2, “Methods and compositions for improving bone marrow hematopoietic functions” (SUN YAT-SEN UNIVERSITY, priority 2019, dated 2026)
“Also recorded” adds a separate entry of the source.

Key:
[1] = tested on: Pdk3 expression in HSPCs; assay: Pdk3 mRNA levels and immunoblotting in HSCs treated with inhibitors; format: cell-based, mouse
Protocol: (§1) The same number of cells from each population to be analyzed were sorted into PBS with 2% FBS. The cells then were washed with PBS and Lysised by RIPA. Equal amounts of protein extracts were fractionated by 12.5% SDS-PAGE and transferred to a PVDF membrane (IPVH00010, Merck Millipore). After blocked with 5% non-fat milk in Tris-buffered saline with Tween-20 (TBST, pH 7.6) for 1 h at room temperature, the membranes were incubated with primary antibodies anti-phospho-PDHE1-A type I (Ser293) (rabbit, 1:1000, ABS204, Merck Millipore), anti-Sphk2 (rabbit, 1:1000, 17096, Proteintech), anti-PDK3 (rabbit, 1:1000, 4970s, Proteintech), or anti-βactin (rabbit, 1:1000, 2118, Cell Signaling Technology), or with primary antibodies anti-PDK3 (rabbit, 1:1000, 12215, Proteintech), anti-β-actin (rabbit, 1:1000, 4970s, Cell Signaling Technology), overnight at 4° C. and then incubated with secondary antibodies (rabbit, 1:10,000, W401B, Promega) for 1 h at room temperature, which was detected by exposure to x-ray film, or by digital imaging with a charge-coupled device camera system (Odyssey Fc). The images shown are representative of images from at least three experiments.

[2] = tested on: HSPCs (LT-HSC, ST-HSC, MPP and CD150HSC) in the bone marrow; assay: ABC294640 treatment of C57BL/6J mice during homeostasis: HSPC numbers and cell cycle; format: in vivo, mouse; details: for HSC pool / HSC quiescence (cell cycle analysis of CD150 HSCs): vs vehicle
From the text: (§2) B6N.129S6-Sphk1tm1Rlp/J (Sphk1Δ/Δ) and B6N.129S6-Sphk2tm1Rlp/J (Sphk2Δ/Δ) mice were obtained from the Jackson Laboratory. To achieve tissue-specific deletion of Sphk2, the Sphk2^flox/flox mice were crossed with Vav-Cre transgenic mice. Sphk2^flox/flox mice was constructed by Cyagen Biosciences Inc. Briefly, linearized targeting vector was electroporated into embryonic stem (ES) cells and positive clones were identified by Southern blotting and injected into C57BL/6 blastocysts followed by chimera production to obtain germline transmission. The Frt-flanked Neo cassette was subsequently removed by mating with Flpe mice. 2-month-old mice or more than 20-month old for aging we used as indicated. 5 FU (Sigma-Aldrich) was injected once or once a week for survival curve as indicated in the tail vein at 150 μg/g body weight. Sphk2 inhibitor ABC294640 (Target Molecule Corp T6750) and PDK inhibitor Sodium dichloroacetate (DCA) (Selleck Chemicals S8615) were intraperitoneal injected at 25 mg/kg. […] Animals were randomly included in the experiments according to genotyping results as a mix of male and female. All animal experiments were performed according to protocols approved by the institutional animal care and use committee.
(§3) For phenotype analysis and hematopoietic purification, hematopoietic cells were harvested from bone marrow (femur and tibia). For cell surface phenotyping, a lineage cocktail (Lin, phycoerythrin (PE)-Cy5) was used, including anti-CD3 (145-2C11), anti-CD4 (RM4-5), anti-CD8 (53-6.7), anti-Mac-1 (M1/70), anti-Gr1 (RB6-8C5), anti-B220 (RA3-6B2), anti-IgM (11/41) and anti-TER119 (TER-119) (100 ng antibody cocktail per million bone marrow cells, Biolegend). Monoclonal antibodies to SCA1 (D7, Biolegend), c-KIT (2B8, Biolegend), FLK2 (A2F10, Biolegend), CD34 (RAM34, eBioscience), CD48 (HM48-1, Biolegend), CD41 (MWReg30, eBioscience), CD150 (TC15-12F12.2, BioLegend), CD16/32 (93, Biolegend), IL-7R (A7R34, Biolegend) (all used as 50 ng per million bone marrow cells) were also used where indicated.
(§4) For cell cycle, DNA damage, the cells were fixed, permeabilized and stained by anti-Ki67 (16A8, Biolegend).
(§5) Cell sorting and analysis were performed using an Attune NxT analyzer (Thermo Fisher Scientific) or InFlux Cell Sorter (BD Biosciences). Data analysis was performed using FlowJo software.

[3] = tested on: HSPCs (LT-HSC, ST-HSC, MPP, CD150HSC); assay: ABC294640 treatment after 5 FU chemotherapeutic stress: HSPC numbers and ROS; format: in vivo, mouse; details: vs vehicle
From the text: as §2, §3
(§6) The cells were further incubated with 0.1 ug/uL DAPI (1306, Thermo Scientific) for 30 min at room temperature. For apoptosis and ROS analysis, the cells were stained by AnnexinV or DCFDA (D6883, Sigma-Aldrich).
as §5

[4] = tested on: human HSCs (reconstitution in NSG mice); assay: Transplantation of ABC294640 treated human cord blood HSCs into NSG mice; format: in vivo, mouse
Protocol: Or, in example 14, for lineage analysis of peripheral blood, monoclonal antibodies to anti-hCD45 (HI-30, eBioscience), anti-mCD45 (30-F11, Biolegend), anti-hCD33 (human myeloid cells) (WM53, eBioscience), anti-hCD19 (human B cells) (HIB19, eBioscience), anti-hCD3 (human T cells) (UCHT1, eBioscience) were used. Every 4 weeks after transplantation, peripheral blood was collected from the submandibular vein. Hematopoietic repopulation was measured from donor-derived blood cells (CD45.2) or human-derived blood cells (human CD45). Human cord blood cells (2×10^5) were cultured in 96-round-well plate with Stem Span media (9650, Stem Cell Technologies) supplemented with SCF (10 ng per ml), TPO (20 ng per ml) for two weeks. The culture media was supplemented with vehicle or ABC294640 (1 μM, Target Molecule Corp […]). After culture for two weeks, the culture product was transplanted into irradiated (2Gy) 6-12 weeks old NSG mice via the tail. No mice were excluded unless they died during the 16-week-observations. All animal experiments were performed according to protocols approved by the institutional animal care and use committee.

[5] = tested on: donor derived HSPCs, white blood cells and platelets; assay: ABC294640 treatment of recipients after bone marrow transplantation: hematopoietic reconstitution; format: in vivo, mouse; details: vs vehicle
From the text: as §2
(§7) 2.0×10^5 CD45.2 bone marrow cells and 2.0×10^5 CD45.1 rescue bone marrow cells were transplanted into lethally irradiated CD45.1 recipients. Adult recipient mice (CD45.1) were irradiated with an Orthovoltage X-ray source delivering approximately in two equal doses of 4.5 Gy at least 3 hours apart. For secondary or tertiary transplantation, bone marrow cells from each recipient were injected into one or two irradiated new recipient mouse (1×10^6 per recipient, depending on the number of recipients) during each round of transplantation.
1×10^6 bone marrow cells were transplanted into lethally irradiated recipients, and the recipients were subjected to ABC294640 treatment or vehicle control (FIG. 67).

[6] = tested on: aged HSPCs; assay: ABC294640 treatment of aged mice to attenuate HSC aging; format: in vivo, mouse
From the text: as §2, §3
For lineage analysis of peripheral blood, monoclonal antibodies to CD45.1 (A20, eBioscience), CD45.2 (104, Biolegend), CD3, B220, Mac-1 and Gr1 were used.
as §4, §6
(§8) Bone marrow cells were diluted to the indicated concentration in PBS and were seeded into methylcellulose medium M3434 (StemCell Technologies) for CFU-GM, CFU-GEMM, and BFU-E colony formation assays according to the manufacturer's

[7] = tested on: functional HSCs (engrafted donor cells in PB); assay: Competitive repopulation (serial transplantation) of bone marrow cells from mice after 5 FU and ABC294640 treatment; format: in vivo, mouse; details: for increase of reconstitution (engrafted donor cells): at 16 weeks, vs vehicle treated bone marrow cells
Protocol: as §7, with “For lineage analysis of peripheral blood, monoclonal antibodies to CD45.1 (A20, eBioscience), CD45.2 (104, Biolegend), CD3, B220, Mac-1 and Gr1 were used. 2.0×10^5 CD45.2” for “2.0×10^5 CD45.2”, “of transplantation. Every 4 weeks after transplantation, peripheral blood was collected from the submandibular vein. Hematopoietic repopulation was measured from donor-derived blood cells (CD45.2) or human-derived blood cells (human CD45).” for “of transplantation.”

[8] = Survival of C57BL/6J mice after serial 5 FU challenges with ABC294640 treatment; format: in vivo, mouse; details: serial 5 FU every 7 days, ABC294640 every other day; vs control
From the text: B6N.129S6-Sphk1tm1Rlp/J (Sphk1Δ/Δ) and B6N.129S6-Sphk2tm1Rlp/J (Sphk2Δ/Δ) mice were obtained from the Jackson Laboratory. To achieve tissue-specific deletion of Sphk2, the Sphk2^flox/flox mice were crossed with Vav-Cre transgenic mice. Sphk2^flox/flox mice was constructed by Cyagen Biosciences Inc. Briefly, linearized targeting vector was electroporated into embryonic stem (ES) cells and positive clones were identified by Southern blotting and injected into C57BL/6 blastocysts followed by chimera production to obtain germline transmission. The Frt-flanked Neo cassette was subsequently removed by mating with Flpe mice. 2-month-old mice or more than 20-month old for aging we used as indicated. 5 FU (Sigma-Aldrich) was injected once or once a week for survival curve as indicated in the tail vein at 150 μg/g body weight. Sphk2 inhibitor ABC294640 (Target Molecule Corp T6750) and PDK inhibitor Sodium dichloroacetate (DCA) (Selleck Chemicals S8615) were intraperitoneal injected at 25 mg/kg. […]
Data are expressed as means±s.d. For all experiments except determination of survival, data were analyzed by Student's t test, and differences were considered statistically significant if P<0.05. The survival of the two groups were analyzed using a log-rank test, and differences were considered statistically significant if P<0.05. […]

[9] = tested on: human cord blood HSCs (CB-HSCs, CD34+CD38-CD45RA-CD49f+); assay: Ex vivo culture of human cord blood cells with ABC294640; format: cell-based; details: 2-week culture, ABC294640 1 μM; vs vehicle
Protocol: For phenotype analysis of human cord blood HSCs (CB-HSCs, CD34^+CD38-CD45RA-CD49f^+), cell surface phenotyping, anti-hCD34 (581), anti-hCD38 (HIT2), anti-hCD45RA (HI100) and anti-hCD49f (GOH3) (100 ng antibody cocktail per million cord blood cells, Biolegend) were used. Human cord blood cells (2×10^5) were cultured in 96-round-well plate with Stem Span media (9650, Stem Cell Technologies) supplemented with SCF (10 ng per ml), TPO (20 ng per ml) for two weeks. The culture media was supplemented with vehicle or ABC294640 (1 μM, Target Molecule Corp […]). After culture for two weeks, the culture product was transplanted into irradiated (2Gy) 6-12 weeks old NSG mice via the tail. No mice were excluded unless they died during the 16-week-observations. All animal experiments were performed according to protocols approved by the institutional animal care and use committee.

[10] = tested on: white blood cells and platelets; assay: Recovery of blood cells after 5-fluorouracil or radiation-induced injury; format: in vivo, mouse
[11] = tested on: HSPCs from Sphk2 deficient mice; assay: DCA treatment of Sphk2 deficient and control mice; format: in vivo, mouse; details: Sphk2 deficient mice treated for 14 days, vs vehicle treated littermates
From the text: as §2
as §3, with “indicated. […]” for “indicated.”

[12] = tested on: Pdk3; assay: Knock-down of Pdk3 in HSCs by siRNA; format: cell-based, mouse
Protocol: as §8
as §1, with “experiments. […]” for “experiments.”

[13] = ABC294640 25 mg/kg intraperitoneal vs vehicle, bone marrow
[14] = 16 weeks after transplantation in NSG mice
[15] = one month after transplantation
[16] = 18-month old mice, treatment for 10 weeks, vs vehicle
[17] = donor-derived lineage cells at 16 weeks after transplantation
[18] = after stimulation of the chemotherapeutic drug 5-fluorouracil
[19] = after the stimulation of radiation

## O=C(NCc1ccncc1)C12CC3CC(C1)CC(c1ccc(Cl)cc1)(C3)C2 [ABC294640, 3-(4-chloro-phenyl)-adamantane-1-carboxylic acid (pyridin-4-ylmethyl)-amide]
[1]
  Pdk3 expression in HSPCs: could upregulate Pdk3 expression
[2]; [13]
  increase of CD150 HSC number: 1.7 fold
  increase of LT-HSC number: 2.1 fold
[2]
  HSC pool: expanded HSPC pool
  HSC quiescence (cell cycle analysis of CD150 HSCs): increased quiescence
[2]; listed as ABC294460
  HSC pool: expands HSC pool
  HSC quiescence (cell cycle analysis of CD150 HSCs): promotes HSC quiescence
[3]; day 14 after 5 FU treatment
  ROS level in CD150 HSCs: markedly reduced
[3]; day 14 post 5 FU
  increase of CD150 HSC number: 2.2 fold
  increase of LT-HSC number: 2.2 fold
  increase of ST-HSC number: 1.6 fold
[4]; [14]
  lymphopoiesis (both B and T cells in recipients): improved lymphopoiesis
  multilineage potential: with multilineage potential
  myeloid skewing: reduction in myeloid skewing
[4]; 16 weeks post transplantation in NSG mice, vs vehicle cultured cells
  increase of reconstitution (human-derived blood cells): 1.76 fold
[5]; 28 days after transplantation
  increase of platelets in PB: 2.6 fold
  increase of white blood cells in PB: 1.9 fold
[5]; [15]
  increase of donor derived CD150 HSC: 2.2 fold
  increase of donor derived LT-HSC: 2.2 fold
  increase of donor derived ST-HSC: 1.6 fold
[6]; [16]
  CD150 HSC quiescence: preserved
  HSPC pool: significantly expanded
  increase of CD41- HSC population: 2.2 fold
  increase of CD150low HSC population: 3.6 fold
  reduction of DNA damage in CD150 HSPCs: 43.7%
  reduction of ROS level in CD150 HSPCs: 63%
[6]; aged mice, vs vehicle
  lymphopoiesis in peripheral blood: markedly increased lymphopoiesis
  myeloid skewing in peripheral blood: suppressed myeloid skewing
[6]; aged mice, vs vehicle treated controls
  colony-forming progenitor frequency in bone marrow cells: significantly higher
[7]; [17]
  lymphopoiesis in recipients: markedly promoted lymphopoiesis
  myeloid skewing in recipients: suppressed myeloid skewing
[7]; primary transplantation
  increase of reconstitution (engrafted donor cells): 1.7 fold
[7]; secondary transplantation
  increase of reconstitution (engrafted donor cells): 1.5 fold
[7]; tertiary transplantation
  increase of reconstitution (engrafted donor cells): 1.9 fold
[8]
  survival: significantly prolonged; also recorded: notably increased survival
[9]
  increase of human HSC numbers: 1.4 fold
[10]; [18]
  recovery of platelets: significantly accelerated
  recovery of white blood cells: significantly accelerated
[10]; [19]
  recovery of platelets: significantly accelerated
  recovery of white blood cells: significantly accelerated

## O=C([O-])C(Cl)Cl.[Na+] [DCA, Sodium dichloroacetate]
[11]; 25 mg/kg intraperitoneal
  HSPC numbers: reduced HSPC numbers
[11]
  HSC quiescence: compromised HSC quiescence
  ROS levels in HSPCs: increased ROS levels

## CCCCCCCCc1ccc(CCC(N)(CO)CO)cc1 [FTY720]
[1]
  Pdk3 expression in HSPCs: not

## siRNA: siRNAs (GGACCTGCATCATGAACAATG, SEQ ID NO. 1) against mouse Pdk3 cloned into lentivirus pLKO.1-puro vector
[12]; Sphk2 deficient HSCs
  HSPC activity (myeloerythroid-colony-forming progenitors): compromised
[12]; control and Sphk2 deficient HSCs, immunoblotting
  PDH-E1α phosphorylation: reduced
